# pIC50: −log10 of the molar value. Like-named read-outs stand apart in the source and are kept apart here.
# Target: T1, mouse TMEM16A mutant N546A (Mus musculus, UniProt Q8BHY3, N546A)
# T1 construct: expressed in transfected cells; host or cells: HEK293T
# T1 sequence (Q8BHY3 1-960 N546A): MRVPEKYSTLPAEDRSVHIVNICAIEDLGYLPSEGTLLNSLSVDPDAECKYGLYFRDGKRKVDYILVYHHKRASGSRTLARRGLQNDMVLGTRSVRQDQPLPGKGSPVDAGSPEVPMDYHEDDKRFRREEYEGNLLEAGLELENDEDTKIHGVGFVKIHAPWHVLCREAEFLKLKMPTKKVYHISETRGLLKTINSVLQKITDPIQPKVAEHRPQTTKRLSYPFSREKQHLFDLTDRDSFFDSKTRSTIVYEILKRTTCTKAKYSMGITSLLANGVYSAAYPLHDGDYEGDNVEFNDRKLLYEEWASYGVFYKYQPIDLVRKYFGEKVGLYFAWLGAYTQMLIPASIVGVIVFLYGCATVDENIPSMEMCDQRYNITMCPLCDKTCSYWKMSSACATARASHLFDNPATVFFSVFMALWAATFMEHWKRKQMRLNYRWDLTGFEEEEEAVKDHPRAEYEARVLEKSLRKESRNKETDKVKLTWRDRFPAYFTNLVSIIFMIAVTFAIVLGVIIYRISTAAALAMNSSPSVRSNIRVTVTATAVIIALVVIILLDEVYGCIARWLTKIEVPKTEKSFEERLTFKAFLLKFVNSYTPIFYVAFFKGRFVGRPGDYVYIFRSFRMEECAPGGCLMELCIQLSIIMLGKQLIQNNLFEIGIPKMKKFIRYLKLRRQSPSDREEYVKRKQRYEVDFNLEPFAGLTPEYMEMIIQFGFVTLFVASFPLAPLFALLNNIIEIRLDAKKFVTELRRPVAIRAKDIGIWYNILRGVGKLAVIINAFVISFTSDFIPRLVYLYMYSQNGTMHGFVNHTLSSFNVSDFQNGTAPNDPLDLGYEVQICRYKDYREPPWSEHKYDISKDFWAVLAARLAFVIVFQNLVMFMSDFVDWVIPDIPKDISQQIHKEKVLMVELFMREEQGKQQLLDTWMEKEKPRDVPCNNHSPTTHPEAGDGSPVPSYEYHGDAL
# Assay: Inside-out patch recording of 1PBC block, mutant N546A
# Assay type: cell-based
# Settings: for remaining activity at 1 µM: 1PBC 1; for remaining activity at 1 µM / remaining activity at 3 µM / remaining activity at 10 µM: read-out: fraction of unblocked current; for remaining activity at 3 µM: 1PBC 3; for remaining activity at 10 µM: 1PBC 10
# Procedure: HEK293T cells (ATCC CRL-1573) were maintained in Dulbecco’s modified Eagle’s medium (DMEM; Sigma-Aldrich) supplemented with 10 U ml^−1 penicillin, 0.1 mg ml^−1 streptomycin (Sigma-Aldrich), 2 mM L-glutamine (Sigma-Aldrich), and 10% FBS (Sigma-Aldrich) in a humidified atmosphere containing 5% CO2 at 37 °C. HEK293S GnTI^− cells (ATCC CRL-3022) were maintained in HyClone HyCell TransFx-H medium (GE Healthcare) supplemented with 10 U ml^−1 penicillin, 0.1 mg ml^−1 streptomycin, 4 mM L-glutamine, 0.15% poloxamer 188 (Sigma-Aldrich), and 1% FBS in an atmosphere containing 5% CO2 at 185 rpm at 37 °C. The ac splice variant of mouse TMEM16A (UniProt ID: Q8BHY3), mouse TMEM16B (UniProt ID: Q8CFW1), or mouse TMEM16F (UniProt ID: Q6P9J9) bearing a 3C cleavage site, a Venus YFP, a Myc tag, and a Streptavidin-binding peptide (SBP) downstream of the open reading frame in a modified pcDNA3.1 vector (Invitrogen) were used as described previously[21],[31]. Mutations were introduced using a modified QuikChange method[58] and were verified by sequencing.
# HEK293T cells were transfected with 3–4 μg DNA per 6 cm Petri dish using the calcium phosphate co-precipitation method and were used within 24–96 h after transfection. Recordings were performed on inside-out patches excised from HEK293T cells expressing the construct of interest. Patch pipettes were pulled from borosilicate glass capillaries (O.D. 1.5 mm, I.D. 0.86 mm, Sutter Instrument) and were fire-polished with a microforge (Narishige) before use. Pipette resistance was typically 3–8 MΩ when filled with the recording solutions detailed below. Seal resistance was typically 4 GΩ or higher. Voltage-clamp recordings were made using Axopatch 200B, Digidata 1550, and Clampex 10.7 (Molecular Devices). Analog signals were filtered with the in-built 4-pole Bessel filter at 10 kHz and were digitized at 20 kHz. Solution exchange was achieved using a gravity-fed system through a theta glass pipette mounted on an ultra-fast piezo-driven stepper (Siskiyou). […] All recordings were performed at 20 °C.
# A symmetrical ionic condition was used throughout. Stock solution with Ca^2+-EGTA contained 150 mM NaCl, 5.99 mM Ca(OH)2, 5 mM EGTA, and 10 mM HEPES at pH 7.40. Stock solution with EGTA contained 150 mM NaCl, 5 mM EGTA, and 10 mM HEPES at pH 7.40. Free Ca^2+ concentrations were adjusted by mixing the stock solutions at the required ratios calculated using the WEBMAXC program (http://web.stanford.edu/~cpatton/webmaxcS.htm). Patch pipettes were filled with the stock solution with Ca^2+-EGTA, which has a free Ca^2+ concentration of 1 mM. 1PBC (ChemBridge) stock was reconstituted in anhydrous DMSO (Sigma-Aldrich) at 100 mM and stored at −20 °C. Working solutions with 1PBC were prepared by serial dilution. Unless otherwise stated, experiments were performed at a saturating Ca^2+ concentration as shown in Supplementary Table 1 and the primary data were corrected for current rundown as described previously[21],[25].
# Concentration-response relations, obtained from the ratio of the I-V plots before and after the application of the blocker, were fitted to the Hill equation,1 I/Imax=1/1+IC50/[blocker]^h where I/Imax is the normalized current responses, IC50 defines the concentration at which inhibition is at its half-maximum, and h is the Hill coefficient.
compound,measurement,setting,value
N#Cc1c(C(F)(F)F)cc(O)n2c1nc1ccccc12 [1PBC],pIC50,"0 mV, 2 µM Ca2+",6.23
same,remaining activity at 1 µM,0 mV,35.3%
same,remaining activity at 1 µM,20 mV,28.4%
same,remaining activity at 1 µM,40 mV,22%
same,remaining activity at 1 µM,60 mV,19.8%
same,remaining activity at 1 µM,80 mV,18.3%
same,remaining activity at 1 µM,100 mV,19.3%
same,remaining activity at 1 µM,120 mV,20.4%
same,remaining activity at 1 µM,140 mV,24.4%
same,remaining activity at 1 µM,-20 mV,42.1%
same,remaining activity at 1 µM,-40 mV,47.5%
same,remaining activity at 1 µM,-60 mV,55.1%
same,remaining activity at 1 µM,-80 mV,60.7%
same,remaining activity at 1 µM,-100 mV,65.9%
same,remaining activity at 1 µM,-120 mV,69.4%
same,remaining activity at 1 µM,-140 mV,71.9%
same,remaining activity at 3 µM,0 mV,16.8%
same,remaining activity at 3 µM,20 mV,12.7%
same,remaining activity at 3 µM,40 mV,11%
same,remaining activity at 3 µM,60 mV,8.55%
same,remaining activity at 3 µM,80 mV,9.38%
same,remaining activity at 3 µM,100 mV,9.83%
same,remaining activity at 3 µM,120 mV,10.5%
same,remaining activity at 3 µM,140 mV,17.6%
same,remaining activity at 3 µM,-20 mV,20.8%
same,remaining activity at 3 µM,-40 mV,25.6%
same,remaining activity at 3 µM,-60 mV,31.9%
same,remaining activity at 3 µM,-80 mV,36.9%
same,remaining activity at 3 µM,-100 mV,42.7%
same,remaining activity at 3 µM,-120 mV,48.5%
same,remaining activity at 3 µM,-140 mV,51.2%
same,remaining activity at 10 µM,0 mV,5.97%
same,remaining activity at 10 µM,20 mV,5.12%
same,remaining activity at 10 µM,40 mV,3.23%
same,remaining activity at 10 µM,60 mV,3.5%
same,remaining activity at 10 µM,80 mV,3.36%
same,remaining activity at 10 µM,100 mV,5.03%
same,remaining activity at 10 µM,120 mV,4.78%
same,remaining activity at 10 µM,140 mV,10.2%
same,remaining activity at 10 µM,-20 mV,6.81%
same,remaining activity at 10 µM,-40 mV,10.2%
same,remaining activity at 10 µM,-60 mV,13.2%
same,remaining activity at 10 µM,-80 mV,16.4%
same,remaining activity at 10 µM,-100 mV,19.7%
same,remaining activity at 10 µM,-120 mV,24.7%
same,remaining activity at 10 µM,-140 mV,27.4%
same,pIC50,"20 mV, 2 µM Ca2+",6.37
same,pIC50,"40 mV, 2 µM Ca2+",6.49
same,pIC50,"60 mV, 2 µM Ca2+",6.57
same,log-fold IC50 (change of mutant vs WT),80 mV,-0.9263
same,pIC50,"80 mV, 2 µM Ca2+",6.62
same,pIC50,"100 mV, 2 µM Ca2+",6.63
same,pIC50,"120 mV, 2 µM Ca2+",6.62
same,pIC50,"140 mV, 2 µM Ca2+",6.50
same,pIC50,"-20 mV, 2 µM Ca2+",6.09
same,pIC50,"-40 mV, 2 µM Ca2+",5.99
same,pIC50,"-60 mV, 2 µM Ca2+",5.87
same,pIC50,"-80 mV, 2 µM Ca2+",5.76
same,pIC50,"-100 mV, 2 µM Ca2+",5.66
same,pIC50,"-120 mV, 2 µM Ca2+",5.56
same,pIC50,"-140 mV, 2 µM Ca2+",5.51
same,pIC50,"N546A, V 0 mV",6.23
same,pIC50,"N546A, V 20 mV",6.37
same,pIC50,"N546A, V 40 mV",6.49
same,pIC50,"N546A, V 60 mV",6.57
same,pIC50,"N546A, V 80 mV",6.62
same,pIC50,"N546A, V 100 mV",6.63
same,pIC50,"N546A, V 120 mV",6.62
same,pIC50,"N546A, V 140 mV",6.50
same,pIC50,"N546A, V -20 mV",6.09
same,pIC50,"N546A, V -40 mV",5.99
same,pIC50,"N546A, V -60 mV",5.86
same,pIC50,"N546A, V -80 mV",5.77
same,pIC50,"N546A, V -100 mV",5.66
same,pIC50,"N546A, V -120 mV",5.56
same,pIC50,"N546A, V -140 mV",5.51

# Reference: paper PMC9120017, “Inhibition mechanism of the chloride channel TMEM16A by the pore blocker 1PBC” (Nature Communications, 2022)
